{"source": "paper PMC11271582", "key": {"[1]": {"target": "DENV NS4B and NS3 (Dengue virus type 2, UniProt P29990)", "sequence (P29990 2244-2491)": "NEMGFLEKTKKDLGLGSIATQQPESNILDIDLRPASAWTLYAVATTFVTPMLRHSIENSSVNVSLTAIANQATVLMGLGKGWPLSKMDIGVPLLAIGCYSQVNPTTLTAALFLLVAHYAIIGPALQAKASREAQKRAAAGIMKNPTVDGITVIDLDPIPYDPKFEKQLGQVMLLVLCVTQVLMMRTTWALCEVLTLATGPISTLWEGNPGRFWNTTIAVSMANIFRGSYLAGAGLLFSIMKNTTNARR", "assay": "imaging-based colocalization of click-labeled PAL compounds with DENV proteins (pIRO-D)", "conditions": "1 µM; pIRO-D WT, Huh7/Lunet-T7 cells"}, "[2]": {"tested_on": "DENV-1 or DENV-2", "conditions": "non-human primates; cited from earlier work"}, "[3]": {"tested_on": "protein synthesis (RNA translation) in Huh7/Lunet-T7 cells", "assay": "ribopuromycylation assay", "format": "cell-based, human", "conditions": "200 µg/ml", "description": "A protocol for the ribopuromycylation method to detect nascent protein synthesis[52] was integrated into the workflow for the determination of VPs formation. In brief, cycloheximide (CHX, 200 µg/ml) was added to cells 30 min before the start of a four-hour treatment with 35 nM JNJ-A07 (or vehicle control) to block de novo protein synthesis. Thereafter, the medium was replaced with DMEMComplete prewarmed to 37 °C, to which puromycin was added at a final concentration of 10 µg/ml. Cells were incubated at 37 °C for 5 minutes and then either fixed for microscopy or lysed for western blot analysis."}, "[4]": {"tested_on": "DENV vesicle packets (VPs) formation", "assay": "determination of VPs formation (pIRO-D system, TEM) in Huh7/Lunet-T7 cells"}, "[5]": {"tested_on": "YFV", "conditions": "cited from earlier work"}, "[6]": {"tested_on": "ZIKV", "design": "method as in PMID 34671169", "conditions": "cited from earlier work"}, "[7]": {"target": "DENV NS1-5 polyprotein (Dengue virus type 2, UniProt P29990)", "sequence (P29990 2244-2491)": "as above", "assay": "polyprotein processing by western blot (pIRO-D system)", "conditions": "35 nM, regardless of the time of addition"}, "[8]": {"tested_on": "cells", "design": "method as in Kaptein et al, Nature, 2021", "conditions": "at used concentrations; ref Kaptein et al, Nature, 2021; cited from earlier work"}, "[9]": {"tested_on": "DENV-2/16681", "design": "method as in PMID 34671169", "conditions": "pan-serotype; cited from earlier work"}, "[10]": {"tested_on": "T1, WT (transient replicon assay, sgDVs-R2A, DENV 2/16681)", "T1 construct": "16681 wild-type subgenomic reporter replicon sgDVs-R2A", "assay": "microbe, parasite or virus in culture", "design": "species or system Huh7-derived cells (sheet title cut off after 'Hu'); transient DENV-2 replicon assay, inhibition of wild-type replicon replication", "conditions": "wild-type replicon, replicate"}, "[11]": {"target": "ZIKV NS4B (Zika virus, UniProt A0A024B7W1)", "sequence (A0A024B7W1 2270-2520)": "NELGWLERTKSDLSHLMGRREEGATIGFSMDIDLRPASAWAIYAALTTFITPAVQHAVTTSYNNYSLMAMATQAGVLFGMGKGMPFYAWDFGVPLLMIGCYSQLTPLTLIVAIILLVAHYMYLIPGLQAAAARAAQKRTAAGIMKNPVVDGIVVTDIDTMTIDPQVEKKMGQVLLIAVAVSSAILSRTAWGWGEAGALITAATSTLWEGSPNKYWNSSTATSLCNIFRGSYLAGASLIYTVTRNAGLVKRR", "assay": "imaging-based colocalization of click-labeled PAL compound with ZIKV NS4B (pIRO-Z)", "conditions": "1 µM, Huh7/Lunet-T7 cells"}, "[12]": {"target": "T2, Calnexin-HA (Homo sapiens, UniProt P27824)", "T2 construct": "expressed in transfected cells", "T2 sequence (P27824 21-592)": "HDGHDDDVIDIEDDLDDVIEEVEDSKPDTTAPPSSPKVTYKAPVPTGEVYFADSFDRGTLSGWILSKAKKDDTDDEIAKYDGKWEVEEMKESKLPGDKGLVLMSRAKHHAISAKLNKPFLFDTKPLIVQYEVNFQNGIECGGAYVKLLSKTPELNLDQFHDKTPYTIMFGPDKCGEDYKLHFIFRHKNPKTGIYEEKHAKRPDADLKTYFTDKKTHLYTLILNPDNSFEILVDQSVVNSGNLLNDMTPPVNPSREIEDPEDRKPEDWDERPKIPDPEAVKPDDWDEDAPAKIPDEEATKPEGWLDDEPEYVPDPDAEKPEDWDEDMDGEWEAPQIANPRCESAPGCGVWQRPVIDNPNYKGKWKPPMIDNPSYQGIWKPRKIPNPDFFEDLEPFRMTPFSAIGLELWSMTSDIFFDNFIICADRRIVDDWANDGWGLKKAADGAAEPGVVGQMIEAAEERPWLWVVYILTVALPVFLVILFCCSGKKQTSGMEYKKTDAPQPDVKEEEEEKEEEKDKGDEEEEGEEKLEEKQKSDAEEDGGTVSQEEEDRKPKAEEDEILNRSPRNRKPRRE", "assay": "photoaffinity labeling and click labeling on agarose beads (specificity control)", "format": "binding", "conditions": "1 µM, UV 365 nm"}}, "note": "“And” between values parts separate entries of the source, which are not always exact repeats. Equal values may be shown once."}
{"smiles": "C#CCCC1(CCn2cc(C(=O)C(Nc3cc(OC)cc(OCCOC)c3)c3ccc(Cl)cc3OC)c3cc(OC(F)(F)F)ccc32)N=N1", "note": "(stereo not shown) [Compound B]", "values": [{"measurement": "colocalization of labeled PAL compound with NS4B (and NS3), Pearson correlation", "setting": "[1]", "value": "significantly lower colocalization"}]}
{"smiles": "COc1cc(N[C@H](C(=O)c2c[nH]c3ccc(OC(F)(F)F)cc23)c2ccc(Cl)cc2OC)cc(S(C)(=O)=O)c1", "note": "[Mosnodenvir]", "values": [{"measurement": "efficacy against infection with either DENV-1 or DENV-2", "setting": "[2]", "value": "highly effective"}]}
{"smiles": "C[C@@H]1C[C@@H]([C@H](O)CC2CC(=O)NC(=O)C2)C(=O)[C@@H](C)C1", "note": "[CHX, cycloheximide]", "values": [{"measurement": "RNA translation (puromycin incorporation)", "setting": "[3]", "value": "completely arrested RNA translation"}]}
{"smiles": "COc1cc(NC(C(=O)N2CCc3ccc(OC(F)(F)F)cc32)c2ccc(Cl)cc2)cc(OCCCC(=O)O)c1", "note": "(stereo not shown) [JNJ-A07]", "values": [{"measurement": "VPE diameter", "setting": "[4]; 35 nM", "value": "no effect on VPE diameter"}, {"measurement": "VPs in time-of-addition experiment", "setting": "[4]; 35 nM added early, 4 h after transfection", "value": "almost complete loss of VPs"}, {"measurement": "VPE formation efficiency in time-of-addition experiment", "setting": "[4]; 35 nM added late, 16 h after transfection", "value": "reduced to a much lower degree"}, {"measurement": "VPE decay with protein synthesis blocked", "setting": "[4]; 35 nM with CHX 200 µg/ml, compared to CHX only", "value": "does not accelerate VPE decay"}, {"measurement": "VPE efficiency", "setting": "[4]; 35 nM, NS4B resistance mutants", "value": "not affected"}, {"measurement": "antiviral activity against YFV lower compared to an average value for a DENV isolate", "setting": "[5]", "value": "about 1000 times"}, {"measurement": "antiviral activity against ZIKV", "setting": "[6]", "value": "marginal antiviral activity"}, {"measurement": "effect on polyprotein processing", "setting": "[7]", "value": "no apparent effect on polyprotein processing"}, {"measurement": "cytotoxicity", "setting": "[8]", "value": "not cytotoxic"}, {"measurement": "activity against DENV", "setting": "[9]", "value": "nano- to picomolar"}]}
{"smiles": "C#CCCC1(CCn2cc(C(=O)C(Nc3cc(OC)cc(OCCOC)c3)c3ccc(Cl)cc3OC)c3cc(OC(F)(F)F)ccc32)N=N1", "note": "(stereo not shown) [Compound A]", "values": [{"measurement": "EC50", "setting": "[10]; Dengue virus, Experimental series=1", "value": 65, "unit": "nM"}, {"measurement": "EC50", "setting": "[10]; Dengue virus, Experimental series=2", "value": 61, "unit": "nM"}, {"measurement": "EC50", "setting": "[10]; Dengue virus, Experimental series=3", "value": 52.9, "unit": "nM"}, {"measurement": "EC50", "setting": "[10]; Experimental series=1, inhibitor", "value": "58 nM and 52 nM"}, {"measurement": "EC50", "setting": "[10]; Experimental series=2, inhibitor", "value": "48 nM and 49 nM"}, {"measurement": "EC50", "setting": "[10]; Experimental series=3, inhibitor", "value": "68.3 nM and 64.3 nM"}, {"measurement": "colocalization of labeled compound with ZIKV NS4B", "setting": "[11]", "value": "low-level, albeit significant colocalization"}, {"measurement": "colocalization of labeled PAL compound with NS4B (and NS3), Pearson correlation", "setting": "[1]", "value": "high degree of colocalization"}, {"measurement": "Cy5.5 labeling of HA-tagged Calnexin", "setting": "[12]", "value": "No labeling"}]}
